Experimental data: patent US20250177566A1, “USE OF CHEMICAL EPIGENETIC MODIFIERS TO MODULATE GENE EXPRESSION” (The University of North Carolina at Chapel Hill, priority 2022, published 2025)

Legend:
Type in all cases: cell-based, human
[1] = system: AAV transgene expression (firefly luciferase); test: AAV regulation with first generation CEM, dual luciferase assay, HEK293T Renilla; conditions: FIG. 12, 50, 200, 500, 1000 nM
Description: It was investigated whether rAAV transgene expression can be epigenetically controlled. Rapid screening of CEM technology can be performed with dual liucierase assays. (FIG. 10). Briefly, a cell line can be stably transduced with Ef1a-Renilla, enabling normalization to cell number. The cells are then either infected with AAV or tranfected with plasmid and dosed with a chemical epigenetic modifier. Luminescence can then be measured with the Dual Lucieferase Reporter, commercially available from Promega. This approach is described in more detail in the methods section of the example. Gene activation can be described as normalized luciferase or fold change. A measure of total gene expression can be calculated by
Preliminary regulation of AAV with first generation CEMs is depicted in FIG. 11A. The prototype system is autogenous, saving casssette space. (FIG. 11B). […] Preliminary regulation of AAV with first generation CEMs in HEK293T Renilla cells using the cassette in FIG. 11B results are shown in FIG. 13, with multiplicity of infection (MOI)=number of viral genomes/cell.

CXCR4 protein = test: CXCR4 cell membrane protein expression in HCT116 (APC anti-CXCR4 antibody, flow cytometry); conditions: for fold change, CXCR4 protein (CXCR4 gRNA vs NT gRNA): FIG. 3E, 7B-7D
Protocol: In addition, the change in CXCR4 protein expression was evaluated following CEM207 treatment at three different concentrations. CEM207 was chosen over CEM203 because of the lower concentration needed to reach a similar peak CXCR4 mRNA activation level. An APC anti-CXCR4 antibody was used to assess cell membrane CXCR4 protein expression via flow cytometry in dCas9 and MS2-FKBP*x2 stably infected HCT116 cells (FIG. 3E and FIGS. 7B-7D). CXCR4 protein levels were determined at 24, 48, and 72 hrs time points for each of the different concentrations of CEM207. […] Based on this protein expression data, it was concluded that the SLF*-CEMa technology can achieve effective gene-specific, dose-dependent activation at the mRNA and protein level.

HEK293T cells = test: alamarBlue cell viability assay, HEK293T
Protocol: FIGS. 8A-8B show alamarBlue cell viability assays. HEK293T or HCT116 cells were plated in 96-well plates 24 hrs before chemical treatment of 0.001, 0.01, 0.1, 1, 10, 50, and 100 μM CEM207 was added. Another group of cells were treated with all concentrations of CEM207 mentioned above along with 200 nM CEM87 in all samples. After 4 days of chemical exposure, cell growth was measured by fluorescence. […] HCT116 cells were stably infected with dCas9 and MS2-FKBP*x2 constructs and transfected with CXCR4 gRNA. After 24 hrs of 25 nM CEM207 treatment, ChIP-qPCR was performed at different base pair distances from the transcription start site of CXCR4 gene. […] Error bars represent the standard deviation.
AlamarBlue cell viability assay. HEK293T or HCT116 cells were placed in black 96-well plates with clear bottom. 24 hrs later, media was exchanged to include 0.001, 0.01, 0.1, 1, 10, 50, 100 μM concentrations of CEM207, or all CEM207 concentrations above along with 200 nM CEM87. After 4 days of chemical exposure, alamarBlue Cell Viability Reagent (Invitrogen, DAL1025) was added to each well. Cells were incubated at 37° C. for 4 hrs and fluorescence was read using the TECAN Infinite F200 Fluorescence Microplate Reader. IC50 values were calculated using GraphPad Prism 9.

[2] = system: firefly luciferase expression cassette; test: Transfection evaluating multiple promoters, SLF* CEM system, dual luciferase assay, 293T Renilla; conditions: FIGS. 15A and 15B; ybTATA, miniCMV, Het, Ef1a core, hPGK; 0, 5, 15 or 50 nM CEM207
Protocol: Next, it was determined whether SLF*CEMs can regulate AAV. The cassette shown in FIG. 14A was inserted into rAAV2 and infected into HEK293T Renilla. […] Next, it was explored whether the cassette was truly modular by varying the promoter while retaining SLF* CEM successful activation of rAAV2.
Transfection Evaluating Multiple Promoters—SLF* CEM System with 0, 5, 15 or 50 nM CEM207:
Day 1 (0 h): 293T cells with stably infected Renilla under the control of full length Ef1a promoter were plated in a 96 well plate; 10 k cells/well, 100 μL media/well. All conditions were plated in biological triplicate.
Day 2 (24 h): A PEI transfection mixture of each construct (Jet, ybTATA, miniCMV, Ef1a core, and hPGK) was prepared and added to each well: 0.1 μg of DNA, 0.3 μL of PEI, and 4 μL of Opti-MEM per well, with PEI added last. Reagents were mixed well and incubated for 15 minutes. 4 μL of the appropriate transfection mixture was added to each well. […]
Day 5 (96 h): […] Data was obtained using the Promega Dula Luciferase Reporter (DLR) assay: first, the cells were washed with 100 μL of PBS/well dropwise followed by 20 μL of 1× passive lysis buffer (PLB) added to each well. The cells were incubated for 15 minutes in PLB and the assay ran on pheraSTAR microplate reader with 25 μL of each DLR reagent, gain=2000.

Structure (SMILES) | luminescence, fold change compared to no treatment [1] | time after CEM treatment of highest CXCR4 protein expression (CXCR4 protein; 24, 48, 72 hrs time points) [h] | fold change, CXCR4 protein (CXCR4 gRNA vs NT gRNA) (CXCR4 protein; 24 h time point, 5 nM) [fold] | fold change, CXCR4 protein (CXCR4 gRNA vs NT gRNA) (CXCR4 protein; 24 h time point, 25 nM) [fold] | fold change, CXCR4 protein (CXCR4 gRNA vs NT gRNA) (CXCR4 protein; 24 h time point, 50 nM) [fold] | fold change, CXCR4 protein (CXCR4 gRNA vs NT gRNA) (CXCR4 protein; 48 h time point, 5 nM) [fold] | fold change, CXCR4 protein (CXCR4 gRNA vs NT gRNA) (CXCR4 protein; 48 h time point, 25 nM) [fold] | fold change, CXCR4 protein (CXCR4 gRNA vs NT gRNA) (CXCR4 protein; 48 h time point, 50 nM) [fold] | fold change, CXCR4 protein (CXCR4 gRNA vs NT gRNA) (CXCR4 protein; 72 h time point, 5 nM) [fold] | fold change, CXCR4 protein (CXCR4 gRNA vs NT gRNA) (CXCR4 protein; 72 h time point, 25 nM) [fold] | fold change, CXCR4 protein (CXCR4 gRNA vs NT gRNA) (CXCR4 protein; 72 h time point, 50 nM) [fold] | concentration of maximum CXCR4 cell membrane protein expression (CXCR4 protein; remained the same at 50 nM) [nM] | IC50 (HEK293T cells; CEM207 treatment alone, 4 days of exposure) [nM] | IC50 (HEK293T cells; treated simultaneously with 200 nM CEM87, 4 days of exposure) [nM] | activation with varied minimal promoters [2]
COc1ccc2c(c1)C(c1ccc(Cl)cc1)=N[C@@H](CC(=O)NCc1cn(CCOCCOCCOCCNC(=O)CCSCCC[C@@H]3/C=C(\C)C[C@H](C)C[C@H](OC)[C@H]4O[C@@](O)(C(=O)C(=O)N5CCCC[C@H]5C(=O)O[C@H](/C(C)=C/[C@@H]5CC[C@@H](O)[C@H](OC)C5)[C@H](C)[C@@H](O)CC3=O)[C@H](C)C[C@@H]4OC)nn1)c1nnc(C)n1-2 [CEM87, reference compound] | dose dependent increase in luminscence |  |  |  |  |  |  |  |  |  |  |  |  |  | 
CC[C@H](C(=O)N1CCCC[C@H]1C(=O)O[C@H](CCc1ccc(OC)c(OC)c1)c1cccc(OCC(=O)NCCOCCOCCNC(=O)C[C@@H]2N=C(c3ccc(Cl)cc3)c3c(sc(C)c3C)-n3c(C)nnc32)c1)c1cc(OC)c(OC)c(OC)c1 [CEM207, (R)-1-(3-((14-((S)-4-(4-Chlorophenyl)-2,3,9-trimethyl-6H-thieno[3,2-f][1,2,4]triazolo[4,3-a][1,4]diazepin-6-yl)-2,13-dioxo-6,9-dioxa-3,12-diazatetradecyl)oxy)phenyl)-3-(3,4-dimethoxyphenyl) propyl(S)-1-((S)-2-(3,4,5-trimethoxyphenyl)butanoyl) piperidine-2-carboxylate] |  | 48 | 2.4 | 4.6 | 4.3 | 2.4 | 4.9 | 5.8 | 1.7 | 4.2 | 3.8 | 25 | 106 | 78.6 | tolerates a variety of minimal promoters
